# Calls of active or inactive are those of the source.
# Assays:
# [1] = viability of HCT116 lacking mutant beta-catenin – cell-based, human colon tumor, dose response (AID 1045); type: functional;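 further: HCT116 colon tumor cells with beta catenin knocked out; cells exposed to compound for 60 hours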
# [2] = viability of PTEN-deleted HCT116 cells – cell-based, HCT116 PTEN knockout, dose response (AID 1047); type: functional;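 further: HCT116 colon tumor cells with PTEN knocked out; cells exposed to compound for 60 hours before readout; potency for loss of cell viability measured by luminescence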
# [3] = target: T1, Heat shock factor protein 1 (Mus musculus, UniProt P38532); experiment: decrease of HSF1-responsive luciferase luminescence – cell-based, NIH3T3, dose retest, confirmation (AID 2382); type: functional;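 further: NIH3T3 fibroblasts with HSF1-driven luciferase reporter stressed by proteasome inhibitor MG132; luminescence from HSF1-driven luciferase expression after 8 hours of MG132 stress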
# T1 sequence (P38532 whole entry): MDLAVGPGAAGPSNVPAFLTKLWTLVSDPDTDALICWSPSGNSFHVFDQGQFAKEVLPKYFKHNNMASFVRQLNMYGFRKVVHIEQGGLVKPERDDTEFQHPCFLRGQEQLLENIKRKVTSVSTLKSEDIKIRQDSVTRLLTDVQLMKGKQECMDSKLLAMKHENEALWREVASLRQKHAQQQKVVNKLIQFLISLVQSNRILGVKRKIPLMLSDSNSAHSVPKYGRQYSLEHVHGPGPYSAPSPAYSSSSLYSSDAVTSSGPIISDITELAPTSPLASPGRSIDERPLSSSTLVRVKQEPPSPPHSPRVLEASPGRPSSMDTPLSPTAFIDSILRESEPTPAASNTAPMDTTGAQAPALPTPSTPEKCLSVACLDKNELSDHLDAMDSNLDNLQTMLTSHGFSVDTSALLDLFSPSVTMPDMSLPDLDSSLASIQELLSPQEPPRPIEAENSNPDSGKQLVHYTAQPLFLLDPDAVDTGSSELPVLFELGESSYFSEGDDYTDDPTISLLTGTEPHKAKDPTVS
# Cytochrome P450 2C9 = Cytochrome P450 2C9 (Homo sapiens, UniProt P11712)
# Cytochrome P450 2C9, sequence (P11712 whole entry): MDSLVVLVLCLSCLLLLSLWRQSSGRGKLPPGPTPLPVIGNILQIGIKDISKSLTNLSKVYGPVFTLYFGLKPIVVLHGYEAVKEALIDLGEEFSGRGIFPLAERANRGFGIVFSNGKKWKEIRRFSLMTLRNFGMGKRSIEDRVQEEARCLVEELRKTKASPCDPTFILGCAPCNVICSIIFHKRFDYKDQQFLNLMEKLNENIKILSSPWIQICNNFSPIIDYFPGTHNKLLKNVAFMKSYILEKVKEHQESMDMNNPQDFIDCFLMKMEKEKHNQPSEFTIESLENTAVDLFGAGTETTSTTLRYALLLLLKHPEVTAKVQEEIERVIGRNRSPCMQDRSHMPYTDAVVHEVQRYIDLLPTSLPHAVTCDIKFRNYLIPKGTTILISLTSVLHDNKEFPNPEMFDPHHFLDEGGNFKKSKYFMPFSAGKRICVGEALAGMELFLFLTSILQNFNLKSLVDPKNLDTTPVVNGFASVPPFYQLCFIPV
# [4] = DRD fibroblast viability loss – cell-based, non-viral oncogenic, luminescence, dose response (AID 1934); type: functional; settings: Homo sapiens
# BJ [5] = experiment: cells; type: functional, cell-based; settings: Homo sapiens
# BJ [6] = experiment: BJ-TERT fibroblast viability loss – cell-based, RAS-independent, luminescence, dose response (AID 1933); type: functional; settings: Homo sapiens
# BJ [7] = experiment: BJ-TERT-LT-ST fibroblast viability loss – cell-based, RAS-independent, luminescence, dose response (AID 1935); type: functional; settings: Homo sapiens;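 further: BJ fibroblasts immortalized with TERT plus LT and ST oncogenes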
# Leucine aminopeptidase = target: T2, Leucine aminopeptidase (Plasmodium falciparum 3D7, UniProt Q8IL11); experiment: P. falciparum M17LAP inhibitors, primary screen, biochemical, fluorogenic H-Leu-NHMec substrate, 1536-well (AID 1619); type: functional
# T2 sequence (Q8IL11 whole entry): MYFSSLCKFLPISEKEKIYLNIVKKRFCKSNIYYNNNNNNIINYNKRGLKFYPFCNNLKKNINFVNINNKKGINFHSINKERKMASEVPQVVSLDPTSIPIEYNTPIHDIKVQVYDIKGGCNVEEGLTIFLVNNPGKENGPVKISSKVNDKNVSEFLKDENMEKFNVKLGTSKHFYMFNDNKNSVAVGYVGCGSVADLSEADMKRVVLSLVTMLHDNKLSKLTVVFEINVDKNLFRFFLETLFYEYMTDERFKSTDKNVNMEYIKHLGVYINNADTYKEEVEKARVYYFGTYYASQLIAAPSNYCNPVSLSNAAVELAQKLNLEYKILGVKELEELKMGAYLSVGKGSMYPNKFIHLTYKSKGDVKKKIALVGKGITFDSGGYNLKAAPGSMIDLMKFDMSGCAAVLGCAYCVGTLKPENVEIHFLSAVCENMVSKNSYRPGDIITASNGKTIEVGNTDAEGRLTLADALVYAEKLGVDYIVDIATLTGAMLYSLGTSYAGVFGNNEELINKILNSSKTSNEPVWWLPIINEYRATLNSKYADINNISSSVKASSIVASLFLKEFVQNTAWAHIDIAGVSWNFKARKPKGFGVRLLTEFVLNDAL
# Paired box protein Pax-8 = Paired box protein Pax-8 (Homo sapiens, UniProt Q06710); experiment: PAX8 transcriptional activity inhibition in RMG-I – RMG-I cells, luciferase, cherry-pick, dose response (AID 687027); type: functional, cell-based;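 further: luciferase reporter driven by Pax8 target thyroperoxidase promoter measured by SteadyGlo luminescence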
# Paired box protein Pax-8, sequence (Q06710 whole entry): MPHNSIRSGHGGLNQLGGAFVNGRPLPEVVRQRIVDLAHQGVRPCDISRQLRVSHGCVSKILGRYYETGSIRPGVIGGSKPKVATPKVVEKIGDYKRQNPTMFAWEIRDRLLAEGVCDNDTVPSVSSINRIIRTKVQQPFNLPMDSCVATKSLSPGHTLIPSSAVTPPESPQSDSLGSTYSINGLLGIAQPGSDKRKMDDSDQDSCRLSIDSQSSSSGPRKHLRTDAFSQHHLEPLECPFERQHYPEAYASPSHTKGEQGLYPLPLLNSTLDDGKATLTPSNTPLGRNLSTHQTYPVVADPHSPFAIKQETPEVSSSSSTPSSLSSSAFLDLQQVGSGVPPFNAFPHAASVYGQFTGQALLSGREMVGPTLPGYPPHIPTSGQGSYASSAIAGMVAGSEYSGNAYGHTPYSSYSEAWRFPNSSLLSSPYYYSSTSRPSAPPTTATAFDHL
# [8] = Luminescence Cell-Based Dose Retest to Confirm Inhibitors of Cancer Stem Cells. [Related pubchem assays (depositor defined):AID2717, AID2721]; type: functional; settings: Homo sapiens
# [9] = target: T3, Rac GTPase-activating protein 1 (Homo sapiens, UniProt Q9H0H5); experiment: blockers of MgcRacGAP-driven Rac1 GTP hydrolysis – biochemical, ADP Hunter fluorescence, primary and confirmatory, confirmation (AID 624330); type: functional
# T3 sequence (Q9H0H5 whole entry): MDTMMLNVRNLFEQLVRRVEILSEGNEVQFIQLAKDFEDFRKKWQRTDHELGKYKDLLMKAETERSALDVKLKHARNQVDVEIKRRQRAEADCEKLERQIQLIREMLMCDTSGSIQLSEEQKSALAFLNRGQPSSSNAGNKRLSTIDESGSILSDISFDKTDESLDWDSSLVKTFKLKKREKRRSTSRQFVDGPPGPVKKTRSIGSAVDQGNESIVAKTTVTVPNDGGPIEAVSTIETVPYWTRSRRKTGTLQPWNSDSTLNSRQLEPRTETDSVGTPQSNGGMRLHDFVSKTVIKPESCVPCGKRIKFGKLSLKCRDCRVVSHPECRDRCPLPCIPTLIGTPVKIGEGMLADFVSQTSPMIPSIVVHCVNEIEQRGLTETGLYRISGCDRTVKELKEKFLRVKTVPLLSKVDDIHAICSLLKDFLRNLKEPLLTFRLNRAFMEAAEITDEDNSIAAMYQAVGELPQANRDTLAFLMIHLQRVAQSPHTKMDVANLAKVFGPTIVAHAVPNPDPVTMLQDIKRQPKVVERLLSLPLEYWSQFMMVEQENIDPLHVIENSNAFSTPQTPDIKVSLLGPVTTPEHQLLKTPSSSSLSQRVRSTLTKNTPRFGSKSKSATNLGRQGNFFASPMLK
# [10] = target: FAD-linked sulfhydryl oxidase ALR (Homo sapiens, UniProt P55789); experiment: ALR-catalysed DTT oxidation blockers – biochemical, H2O2 detection, luminescence, cherry-pick, dose response (AID 493248)
# FAD-linked sulfhydryl oxidase ALR, sequence (P55789 whole entry): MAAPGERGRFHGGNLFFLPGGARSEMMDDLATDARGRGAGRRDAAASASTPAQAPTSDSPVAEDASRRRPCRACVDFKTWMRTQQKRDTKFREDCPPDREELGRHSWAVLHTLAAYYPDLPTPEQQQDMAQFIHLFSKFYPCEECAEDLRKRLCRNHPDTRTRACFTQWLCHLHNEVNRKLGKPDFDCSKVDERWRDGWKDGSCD
# [11] = tested on: Streptococcus sp. 'group A'; experiment: Streptococcus pyogenes SK(-)GAS viability under kanamycin – luminescence, BacTiterGlo, confirmation, counter-screen for streptokinase expression inhibitor project, dose response (AID 1900); type: functional, organism-based
# Streptokinase A = target: T4, Streptokinase A (Streptococcus pyogenes serotype M1, UniProt P10520); experiment: viability-normalized secreted streptokinase activity reduction – plasminogen activation absorbance, OD405, dose response (AID 1914); type: functional, Streptococcus pyogenes M1 GAS;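 further: secreted streptokinase activity via plasminogen activation per viability signal from cell pellet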
# T4 sequence (P10520 whole entry): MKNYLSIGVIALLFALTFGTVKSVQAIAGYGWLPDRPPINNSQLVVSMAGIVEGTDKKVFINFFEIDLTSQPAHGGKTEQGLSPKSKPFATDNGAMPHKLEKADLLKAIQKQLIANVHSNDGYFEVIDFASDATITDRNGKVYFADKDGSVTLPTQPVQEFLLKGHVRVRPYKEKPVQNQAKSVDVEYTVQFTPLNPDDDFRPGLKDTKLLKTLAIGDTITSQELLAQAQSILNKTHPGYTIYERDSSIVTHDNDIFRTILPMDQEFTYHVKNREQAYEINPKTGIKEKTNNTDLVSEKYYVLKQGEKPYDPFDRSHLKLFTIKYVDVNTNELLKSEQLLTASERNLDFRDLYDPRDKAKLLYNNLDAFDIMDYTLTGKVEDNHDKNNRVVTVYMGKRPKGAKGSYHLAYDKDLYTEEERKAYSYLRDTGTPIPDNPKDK
# Streptococcus = experiment: GAS UMAA2166 growth inhibition – luminescence, BacTiterGlo, counter-screen for streptokinase expression inhibitor project, dose response (AID 1915); type: functional, organism-based;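 further: potency for reduction of bacterial viability or growth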
compound,measurement,setting,value
S=C(Nc1ccccn1)c1ccccn1,EC50,[1],5.37 µM (active)
same,EC50,[2],5.48 µM (active)
CC(C)CCNC(=O)CN(C(=O)CCC(=O)Nc1nccs1)c1ccc2c(c1)OCCO2,EC50,[3],5.9 µM (active)
CN1CCN(c2nc(-c3ccc(C(C)(C)C)cc3)nc3ccccc23)CC1,EC50,[3],0.328 µM (active)
CC(=O)Nc1nn(C)c2nc(C)cc(C)c12,EC50,[3],> 195 µM (not active)
COc1ccc(NC(C)=O)cc1NC(=O)CN1CCN(CC(=O)Nc2ccccc2Cl)CC1,AC50,Cytochrome P450 2C9,20 µM (inconclusive)
same,EC50,[3],> 195 µM (not active)
CC1CC(=O)Nc2cc([N+](=O)[O-])ccc2N1 (centres undefined),EC50,[3],> 195 µM (not active)
COc1ccc(C(C)N2CC34C=CC(O3)C(C(=O)O)C4C2=O)cc1 (centres undefined),EC50,[3],> 195 µM (not active)
Cc1cnc(C(=O)Nc2ccccc2-n2cccc2)cn1,EC50,[3],> 195 µM (not active)
CCn1c2ccccc2c2cc(NC(=O)CNCc3ccccc3OC)ccc21,EC50,[4],4.21 µM (active)
same,EC50,BJ [5],> 150 µM (inconclusive)
same,EC50,BJ [6],7.54 µM (inconclusive)
same,EC50,BJ [7],41.6 µM (inconclusive)
N#C/C(=C/c1cccc(C(F)(F)F)c1)c1nc(CCN2C(=O)c3ccccc3C2=O)cs1,EC50,[3],> 195 µM (not active)
Cc1cccc(C)c1Nc1nnc(SC(C)C(=O)Nc2c(C)n(C)n(-c3ccccc3)c2=O)s1 (centres undefined),IC50,Leucine aminopeptidase,13.5 µM (active)
COc1ccc(-c2cc(-c3ccccc3)c(C#N)c(S(C)(=O)=O)n2)cc1,EC50,[1],5.07 µM (active)
same,AC50,Paired box protein Pax-8,6.98 µM (active)
same,EC50,[2],7.91 µM (active)
CCOc1cc(CNCCO)cc(Br)c1OCc1ccc(Cl)cc1Cl,EC50,[1],4.69 µM (active)
same,AC50,[8],6.75 µM (active)
same,EC50,[2],4.89 µM (active)
C=CCn1c(=S)[nH]c2sc3c(c2c1=O)CCC3,IC50,Leucine aminopeptidase,46.2 µM (active)
O=C(O)c1cccc(CN2C(=O)SC(Nc3ccccc3)C2=O)c1 (centres undefined),IC50,Leucine aminopeptidase,34.3 µM (active)
NS(=O)(=O)c1ccc(CN=C(S)NC2CCCCC2)cc1,EC50,[3],> 195 µM (not active)
CCN1CCN(CC(c2ccccc2)c2ccccc2)CC1,IC50,[9],197 µM (active)
Cc1cccc(NC(=O)Cn2cnc3c(cnn3-c3ccc(F)cc3)c2=O)c1C,EC50,[1],14.2 µM (active)
same,EC50,[2],6.93 µM (active)
c1ccc(-c2nnc(Sc3ncnc4c3cnn4-c3ccccc3)[nH]2)cc1,IC50,Leucine aminopeptidase,64.8 µM (active)
Nc1ccc(O)c([N+](=O)[O-])c1,IC50,[9],42.8 µM (active)
CC1SCC(=O)N(CC(=O)Nc2ccc3c(c2)OCO3)C1=O (centres undefined),IC50,Leucine aminopeptidase,29.4 µM (active)
CCCN1Cc2cccc(C(=O)N3CCN(c4ccc(OC)cc4)CC3)c2C1=O,EC50,[3],> 195 µM (not active)
CCOC(=O)c1sc(NC(=O)c2cc(-c3ccc(C)cc3)nc3ccccc23)c(C#N)c1C,EC50,[1],10.5 µM (active)
same,EC50,[2],9.45 µM (active)
O=C(CSc1ncccc1C(=O)O)NCCC1=CCCCC1,IC50,Leucine aminopeptidase,29.2 µM (active)
Nc1nnc(Nc2ccc(Cl)cc2)[nH]1,IC50,Leucine aminopeptidase,6.6 µM (active)
same,AC50,[10],4.22 µM (active)
Cc1cccc(CN2CCN(Cc3ccco3)CC2)c1,IC50,[9],87.2 µM (active)
Cc1ccc(S(=O)(=O)N2CCN(CCNC(=O)C(=O)NCc3ccccc3)CC2)cc1,EC50,[3],> 195 µM (not active)
c1ccc(-c2nc3ccccc3c3nncn23)cc1,EC50,[3],> 195 µM (not active)
Nc1ccn([C@@H]2O[C@H](CNCC3=CCOc4ccc(O)cc43)[C@@H](O)[C@H]2O)c(=O)n1,IC50,[9],92.4 µM (active)
O=C(N/N=C/c1ccsc1)c1cc(-c2cccs2)nc2ccccc12,AC50,Paired box protein Pax-8,51.8 µM (active)
CCOc1cc(/C=N/NC(=O)c2ccccc2-n2cccc2)ccc1O,IC50,[9],46.2 µM (active)
N#C[C@H]1[C@H](c2ccc(C#CC3CCCCC3)cc2)[C@H](CO)N1C(=O)Nc1ccc(F)cc1,AC50,Paired box protein Pax-8,20.8 µM (active)
C[C@@H]1CCCCO[C@@H](CN(C)Cc2ccc(C(F)(F)F)cc2)[C@@H](C)CN([C@@H](C)CO)C(=O)c2cc(NS(=O)(=O)c3ccc(F)cc3)ccc2O1,AC50,Paired box protein Pax-8,8.7 µM (active)
Cc1ccc(S(=O)(=O)N[C@@H]2C=C[C@@H](CC(=O)N3CCC(Cc4ccccc4)CC3)O[C@@H]2CO)cc1,AC50,Paired box protein Pax-8,13.3 µM (active)
Cc1ccc(S(=O)(=O)Nc2ccc3c(c2)C(=O)N([C@@H](C)CO)C[C@@H](C)[C@H](CN(C)S(=O)(=O)c2ccc(Cl)cc2)OCCCC[C@@H](C)O3)cc1,AC50,Paired box protein Pax-8,4.47 µM (active)
C/C(N)=C(/C#N)C(=O)COC(=O)c1cc(-c2ccc(Br)cc2)nc2ccccc12,EC50,[1],24.9 µM (active)
same,EC50,[11],11.9 µM (active)
same,EC50,[2],25 µM (active)
same,EC50,Streptokinase A,4.43 µM (active)
same,EC50,Streptococcus,18.7 µM (active)
COc1ccc(/C=N/NC(=O)c2cccc(S(=O)(=O)N3CCCC3)c2)cc1O,IC50,[9],57.5 µM (active)
COc1ccc(/C=N/NC(=O)c2ccc(CSc3nc(C)cc(C)n3)cc2)cc1O,IC50,[9],114 µM (active)
